Organism: Rattus norvegicus
Assay: Open TG-GATES - Regimen: Single
Format: toxicity, organism-based, Sprague-Dawley
Set-up: regimen Single, gender Male, age 6 weeks
Details: in vivo, iv, 0 mg/kg, route intravenous injection, dose level Control; for KIDNEY_L / KIDNEY_R / KIDNEY_TOTAL: tissue Kidney; for LIVER: tissue Liver

CISPLATIN
TERMINAL_BW (3 h): 217.6 g
Bas (3 h, tissue Blood): 0%
Eos (3 h, tissue Blood): 1%
Fbg (3 h, tissue Blood): 292.4 mg/dL
Ht (3 h, tissue Blood): 40.6%
Lym (3 h, tissue Blood): 82.4%
MCHC (3 h, tissue Blood): 32.6%
MCV (3 h, tissue Blood): 65.7 fL
Mono (3 h, tissue Blood): 2.2%
PT (3 h, tissue Blood): 15.3 s
Plat (3 h, tissue Blood): 125.7 x10_4/uL
RBC (3 h, tissue Blood): 617.8 x10_4/ul
Ret (3 h, tissue Blood): 6.8%
WBC (3 h, tissue Blood): 111 x10_2/uL
KIDNEY_L (3 h): 1 g
KIDNEY_R (3 h): 1 g
KIDNEY_TOTAL (3 h): 1.9 g
ALP (3 h, tissue Plasma): 1441.2 IU/L
ALT (3 h, tissue Plasma): 48.4 IU/L
AST (3 h, tissue Plasma): 80.6 IU/L
BUN (3 h, tissue Plasma): 13.6 mg/dL
CRE (3 h, tissue Plasma): 0.2 mg/dL
Ca (3 h, tissue Plasma): 11 mg/dL
DBIL (3 h, tissue Plasma): 0 mg/dL
IP (3 h, tissue Plasma): 8.7 mg/dL
K (3 h, tissue Plasma): 4.2 meq/L
LDH (3 h, tissue Plasma): 188.6 IU/L
PL (3 h, tissue Plasma): 126.6 mg/dL
RALB (3 h, tissue Plasma): 2.9 g/dL
TBIL (3 h, tissue Plasma): 0.02 mg/dL
TC (3 h, tissue Plasma): 71 mg/dL
TG (3 h, tissue Plasma): 54.8 mg/dL
TP (3 h, tissue Plasma): 5.4 g/dL
gamma-GTP (3 h, tissue Plasma): 2 IU/L
TERMINAL_BW (6 h): 210.4 g
APTT (6 h, tissue Blood): 22.8 s
Bas (6 h, tissue Blood): 0%
Eos (6 h, tissue Blood): 1%
Fbg (6 h, tissue Blood): 275.4 mg/dL
Hb (6 h, tissue Blood): 13 g/dL
Ht (6 h, tissue Blood): 39.7%
Lym (6 h, tissue Blood): 83.4%
MCH (6 h, tissue Blood): 21.1 pg
MCHC (6 h, tissue Blood): 32.7%
MCV (6 h, tissue Blood): 64.3 fL
Mono (6 h, tissue Blood): 3%
Plat (6 h, tissue Blood): 115.2 x10_4/uL
RBC (6 h, tissue Blood): 617.6 x10_4/ul
Ret (6 h, tissue Blood): 6.5%
WBC (6 h, tissue Blood): 152.3 x10_2/uL
KIDNEY_L (6 h): 0.9 g
KIDNEY_R (6 h): 1 g
KIDNEY_TOTAL (6 h): 1.9 g
LIVER (6 h): 9.2 g
ALP (6 h, tissue Plasma): 1766.6 IU/L
ALT (6 h, tissue Plasma): 44 IU/L
AST (6 h, tissue Plasma): 76.8 IU/L
BUN (6 h, tissue Plasma): 12.6 mg/dL
CRE (6 h, tissue Plasma): 0.2 mg/dL
DBIL (6 h, tissue Plasma): 0 mg/dL
IP (6 h, tissue Plasma): 9.5 mg/dL
K (6 h, tissue Plasma): 4.5 meq/L
LDH (6 h, tissue Plasma): 165.8 IU/L
Na (6 h, tissue Plasma): 139.2 meq/L
PL (6 h, tissue Plasma): 128.6 mg/dL
RALB (6 h, tissue Plasma): 2.8 g/dL
TBIL (6 h, tissue Plasma): 0 mg/dL
TC (6 h, tissue Plasma): 67.2 mg/dL
TG (6 h, tissue Plasma): 81.6 mg/dL
TP (6 h, tissue Plasma): 5.2 g/dL
gamma-GTP (6 h, tissue Plasma): 1.6 IU/L
TERMINAL_BW (9 h): 208.8 g
APTT (9 h, tissue Blood): 24.1 s
Bas (9 h, tissue Blood): 0%
Eos (9 h, tissue Blood): 0.6%
Fbg (9 h, tissue Blood): 257.6 mg/dL
Hb (9 h, tissue Blood): 13 g/dL
Ht (9 h, tissue Blood): 39.9%
Lym (9 h, tissue Blood): 79.8%
MCHC (9 h, tissue Blood): 32.7%
MCV (9 h, tissue Blood): 64 fL
Mono (9 h, tissue Blood): 2.4%
Neu (9 h, tissue Blood): 16.4%
Plat (9 h, tissue Blood): 119.1 x10_4/uL
RBC (9 h, tissue Blood): 623 x10_4/ul
Ret (9 h, tissue Blood): 5.8%
WBC (9 h, tissue Blood): 90.6 x10_2/uL
KIDNEY_L (9 h): 0.9 g
KIDNEY_R (9 h): 1 g
KIDNEY_TOTAL (9 h): 1.9 g
LIVER (9 h): 8.9 g
ALP (9 h, tissue Plasma): 1337.6 IU/L
ALT (9 h, tissue Plasma): 39.8 IU/L
AST (9 h, tissue Plasma): 74.2 IU/L
BUN (9 h, tissue Plasma): 12.8 mg/dL
CRE (9 h, tissue Plasma): 0.1 mg/dL
DBIL (9 h, tissue Plasma): 0 mg/dL
GLC (9 h, tissue Plasma): 184.8 mg/dL
K (9 h, tissue Plasma): 4.2 meq/L
LDH (9 h, tissue Plasma): 139.8 IU/L
Na (9 h, tissue Plasma): 139.8 meq/L
PL (9 h, tissue Plasma): 130.2 mg/dL
RALB (9 h, tissue Plasma): 2.9 g/dL
TBIL (9 h, tissue Plasma): 0.02 mg/dL
TP (9 h, tissue Plasma): 5.4 g/dL
gamma-GTP (9 h, tissue Plasma): 1.6 IU/L
